Experimental data from US20080153791A1, “11Beta -Hydroxysteroid Dehydrogenases” (onpharm GmbH, priority 2005, published 2008).
Read-outs that look alike come from different tables or passages of the source.

What was measured:
human 11β-HSD1 [1] = biological target: T1, human 11β-HSD1 (Homo sapiens, UniProt P28845); experiment: 11β-HSD1 reductase activity (cortisone to cortisol) in lysates of stably transfected HEK-293 cells; assay type: biochemical; conditions: for remaining activity at 20 µM: 20 μM compound, 100 nM cortisone, HEK-293 cell lysates, read-out: 11β-HSD1 % of control
T1 construct: expressed in transfected cells
Procedure: (§1) Cells were grown in 10 cm dishes to 80% confluence and incubated for 16 h in steroid-free medium (charcoal-treated fetal calf serum (FCS) from HyClone, Logan, Utah). Cells were rinsed once with phosphate-buffered saline (PBS), detached and centrifuged for 3 min at 150×g. The supernatant was removed and the cell pellet quick-frozen in a dry-ice ethanol bath. At the day of experiment, cell pellets were resuspended in buffer TS2 (100 mM NaCl, 1 mM EGTA, 1 mM EDTA, 1 mM MgCl2, 250 mM sucrose, 20 mM Tris-HCl, pH 7.4), sonicated and activities determined immediately. The rate of conversion of cortisol to cortisone or the reverse reaction was determined in 96-well optical PCR reaction plates (Applied Biosystems, Foster City, Calif.) in a final volume of 22 μl, and the tubes were capped during the reaction to avoid evaporation.
Reactions were initiated simultaneously by adding 10 μl of cell lysate and 12 μl of TS2 buffer containing the appropriate concentration of the inhibitory compound to be tested, NADPH, 30 nCi of [1,2,6,7-^3H]-cortisone and unlabeled cortisone, whereby final concentrations were 400 μM NADPH and 100 nM cortisone. Activities were determined immediately after cell disruption by measuring the conversion of radiolabeled cortisone to cortisol for 10 min.
(§2) Enzyme kinetics were analyzed by non-linear regression using Data Analysis Toolbox (MDL Information Systems Inc.) assuming first-order rate kinetics. Data represent mean ±SD of four to five independent experiments.
(§3) Assay with 20 μM of the corresponding compound in the reaction mixture, added simultaneously with the substrate:
(§4) Determination of IC50 values, using 7 different inhibitor concentrations at factor 2 intervals: […]

human 11β-HSD2 [2] = biological target: T2, human 11β-HSD2 (Homo sapiens, UniProt P80365); experiment: 11β-HSD2 oxidase activity (cortisol to cortisone) in lysates of stably transfected HEK-293 cells; assay type: biochemical; conditions: for remaining activity at 20 µM: 20 μM compound, 25 nM cortisol, HEK-293 cell lysates, read-out: 11β-HSD2 % of control; for IC50: cell lysates, 7 inhibitor concentrations at factor 2 intervals
T2 construct: expressed in transfected cells
T2 sequence (P80365 1-405): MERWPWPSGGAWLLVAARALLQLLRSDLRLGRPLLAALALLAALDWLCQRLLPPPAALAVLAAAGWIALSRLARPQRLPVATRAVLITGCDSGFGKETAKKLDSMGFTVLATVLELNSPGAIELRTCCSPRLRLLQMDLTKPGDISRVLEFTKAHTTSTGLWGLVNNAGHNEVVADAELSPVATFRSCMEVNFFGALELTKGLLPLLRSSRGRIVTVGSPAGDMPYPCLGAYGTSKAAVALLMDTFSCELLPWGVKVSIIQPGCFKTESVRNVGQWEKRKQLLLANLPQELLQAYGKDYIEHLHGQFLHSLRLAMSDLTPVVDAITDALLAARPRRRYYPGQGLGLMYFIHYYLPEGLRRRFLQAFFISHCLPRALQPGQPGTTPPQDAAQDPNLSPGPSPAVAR
Procedure: as §1
Reactions were initiated by simultaneously adding 10 μl of cell lysate and 12 μl of TS2 buffer containing the appropriate concentration of the inhibitory compound to be tested, NAD^+, 30 nCi of [1,2,6,7-^3H]-cortisol and unlabeled cortisol. […] Stock solutions of the inhibitors in methanol or DMSO were diluted in TS2 buffer to yield the appropriate concentrations, whereby the concentration of methanol or DMSO in the reactions were kept below 0.1%. Control reactions with or without 0.1% of the solvent were performed. Incubation was at 37° C. for 10 min with shaking, reactions were terminated by adding 10 μl of stop solution containing 2 mM of unlabeled cortisol and cortisone dissolved in methanol. The conversion of radiolabeled cortisol was determined by separation of cortisol and cortisone using TLC and a solvent system of 9:1 (v/v) chloroform:methanol, followed by scintillation counting.
as §2, §3, §4

human 11β-HSD1 [3] = biological target: T1, human 11β-HSD1; experiment: 11β-HSD1 activity in intact transfected HEK-293 cells; assay type: cell-based
Procedure: (§5) Human 11β-HSD1 and 11β-HSD2 activities were assessed in intact stably transfected HEK-293 cells. Per well of a 96-well plate 30,000 cells were seeded, followed by growth for 24 h in steroid-free DMEM medium. The total volume was 30 μl and contained 100 nM of radiolabeled cortisol or cortisone as substrate and the corresponding inhibitor at a final concentration between 0-200 μM. The reaction was performed in steroid-free medium in the absence of exogenous cofactor for 1 to 3 h at 37° C. The solvent was below 0.1% (DMSO). Reactions were stopped by adding unlabeled cortisol and cortisone dissolved in methanol (2 mM final). Steroids were separated by TLC and conversion determined by scintillation counting.
as §2

17β-HSD1 = biological target: T3, 17β-HSD1 (Homo sapiens, UniProt P14061); experiment: Inhibition of 17β-HSD1; assay type: biochemical
T3 sequence (P14061 1-328): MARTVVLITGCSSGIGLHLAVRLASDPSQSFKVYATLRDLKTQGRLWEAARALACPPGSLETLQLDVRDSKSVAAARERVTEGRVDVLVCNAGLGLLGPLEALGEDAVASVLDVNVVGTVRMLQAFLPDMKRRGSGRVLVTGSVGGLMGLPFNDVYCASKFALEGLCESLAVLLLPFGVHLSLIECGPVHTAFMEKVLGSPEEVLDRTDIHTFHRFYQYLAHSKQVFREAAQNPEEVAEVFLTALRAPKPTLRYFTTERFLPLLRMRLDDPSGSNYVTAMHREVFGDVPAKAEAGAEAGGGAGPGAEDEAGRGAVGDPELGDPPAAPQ

17β-HSD2 = biological target: T4, 17β-HSD2 (Homo sapiens, UniProt P37059); experiment: Inhibition of 17β-HSD2; assay type: biochemical
T4 sequence (P37059 1-387): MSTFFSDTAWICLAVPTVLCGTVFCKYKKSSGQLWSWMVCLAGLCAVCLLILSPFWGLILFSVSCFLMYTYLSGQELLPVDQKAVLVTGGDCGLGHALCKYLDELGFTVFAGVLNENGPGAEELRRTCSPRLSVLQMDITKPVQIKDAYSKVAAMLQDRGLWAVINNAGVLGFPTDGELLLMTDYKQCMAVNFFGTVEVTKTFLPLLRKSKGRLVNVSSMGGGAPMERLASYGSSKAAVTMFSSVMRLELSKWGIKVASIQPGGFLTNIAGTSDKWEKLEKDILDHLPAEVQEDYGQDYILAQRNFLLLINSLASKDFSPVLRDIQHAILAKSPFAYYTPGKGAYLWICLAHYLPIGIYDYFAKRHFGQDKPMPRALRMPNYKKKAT

human 11β-HSD2 [4] = biological target: T2, human 11β-HSD2; experiment: 11β-HSD2 activity in intact transfected HEK-293 cells; assay type: cell-based; conditions: read-out: IC50 for 11β-HSD2 (determined in intact transfected HEK-293 cells)
Procedure: as §5, §2

human 11β-HSD1 [5] = biological target: T1, human 11β-HSD1; experiment: 11β-HSD1 reductase activity (cortisone to cortisol) in lysates of stably transfected HEK-293 cells; assay type: biochemical; conditions: read-out: 11β-HSD1 % of control

T1 sequence (P28845 whole entry): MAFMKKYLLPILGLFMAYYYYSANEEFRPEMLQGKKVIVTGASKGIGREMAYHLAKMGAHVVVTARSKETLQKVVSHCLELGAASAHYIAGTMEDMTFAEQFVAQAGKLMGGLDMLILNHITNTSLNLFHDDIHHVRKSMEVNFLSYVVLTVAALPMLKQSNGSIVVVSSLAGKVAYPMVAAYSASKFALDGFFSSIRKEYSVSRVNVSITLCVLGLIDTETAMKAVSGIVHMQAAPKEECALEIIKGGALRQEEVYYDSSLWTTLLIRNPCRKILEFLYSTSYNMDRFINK

Work on `COc1ccc(CCNC(=O)C23CCC(C)(C(=O)C2=O)C3(C)C)cc1OC` (stereo not shown) [BNW7, 4,7,7-Trimethyl-2,3-dioxo-bicyclo[2.2.1]heptane-1-carboxylic acid [2-(3,4-dimethoxy-phenyl)-ethyl]-amide] yielded a remaining activity at 20 µM (human 11β-HSD1 [1]) of 9.6%, an IC50 (human 11β-HSD1 [1]; cell lysates, 7 inhibitor concentrations at factor 2 intervals, experiment 1, read-out: IC 50 11β-HSD1, determination 1) of 1.95 µM and an IC50 (human 11β-HSD1 [1]; cell lysates, 7 inhibitor concentrations at factor 2 intervals, experiment 2, read-out: IC 50 11β-HSD1, determination 2) of 1.91 µM. For the same compound, the IC50 (human 11β-HSD1 [1]; cell lysates, 7 inhibitor concentrations at factor 2 intervals, experiment 3, read-out: IC 50 11β-HSD1, determination 3) was 2.24 µM, the “inhibition of 11β-HSD2 (in words)” value (human 11β-HSD2 [2]) was “did not inhibit” and the remaining activity at 20 µM (human 11β-HSD2 [2]) was 140%. For the same compound, the “inhibition of 11β-HSD2 (in words)” value (human 11β-HSD2 [2]; listed as 7) was “no inhibition”, the IC50 (human 11β-HSD1 [3]; 11β-HSD1, intact HEK-293 cells, mean ± SD, read-out: IC50 in intact cells) was 0.55 ± 0.05 µM and the “inhibition of 17β-HSD1 (in words)” value (17β-HSD1) was “did not inhibit”. The “inhibition of 17β-HSD1 (in words)” value (17β-HSD1; listed as 7) was “no inhibition”, the “inhibition of 17β-HSD2 (in words)” value (17β-HSD2) was “did not inhibit” and the “inhibition of 17β-HSD2 (in words)” value (17β-HSD2; listed as 7) was “no inhibition”.
In the case of `CC(=O)OC1CC[C@]2(C)C3=C(C(=O)C[C@H]2C1(C)C)[C@]1(C)CCC(C(C)CCC(=O)O)[C@@]1(C)CC3=O` (stereo partly drawn) [BNW16, 4-((5R,10S,13R,14R)-3-Acetoxy-4,4,10,13,14-pentamethyl-7,11-dioxo-2,3,4,5,6,7,10,11,12,13,14,15,16,17-tetradecahydro-1H-cyclopenta[a]phenanthren-17-yl)-pentanoic acid], the remaining activity at 20 µM (human 11β-HSD1 [1]) is reported as 2.7%, the IC50 (human 11β-HSD1 [1]; IC 50 11β-HSD1, determination 1) is reported as 0.149 µM and the IC50 (human 11β-HSD1 [1]; IC 50 11β-HSD1, determination 2) is reported as 0.168 µM. The IC50 (human 11β-HSD1 [1]; IC 50 11β-HSD1, determination 3) was 0.114 µM, the “inhibition of 11β-HSD2 (in words)” value (human 11β-HSD2 [2]) was “no inhibition” and the remaining activity at 20 µM (human 11β-HSD2 [2]) was 27.4%. For the same compound, the IC50 (human 11β-HSD2 [2]; experiment 2, read-out: IC 50 11β-HSD2, determination 2) was 4.04 µM, the IC50 (human 11β-HSD2 [2]; experiment 3, read-out: IC 50 11β-HSD2, determination 3) was 3.87 µM and the IC50 (human 11β-HSD1 [3]) was 2.32 ± 0.33 µM. The IC50 (human 11β-HSD1 [3]; text b14, read-out: IC50 for 11β-HSD1 determined in intact transfected HEK-293 cells) was 0.41 ± 0.08 µM, the IC50 (human 11β-HSD2 [4]) was > 50 µM and the IC50 (17β-HSD1) was > 30 µM. For the same compound, the “inhibition of 17β-HSD1 (in words)” value (17β-HSD1) was “no inhibition”, the IC50 (17β-HSD2) was 28.3 ± 5.5 µM and the “inhibition of 17β-HSD2 (in words)” value (17β-HSD2) was “no inhibition”.
With `CC1(C)[C@@H](OC(=O)CCC(=O)O)CC[C@]2(C)[C@H]3C(=O)C=C4[C@@H]5C[C@@](C)(C(=O)O)CC[C@]5(C)CC[C@@]4(C)[C@]3(C)CC[C@@H]12` [CBX, carbenoxolone] the remaining activity at 10 µM (human 11β-HSD1 [5]) was 4.4%.
